Laboratory results: patent US20260109707A1, “HETEROBIFUNCTIONAL COMPOUNDS AND METHODS OF TREATING DISEASE” (Halda Therapeutics OpCo. Inc., priority 2022, published 2026)
Read-outs that look alike come from different tables or passages of the source.

Assays:
[1] = test system: VCaP cells; test: Cellular growth inhibition assay for VCaP cells (CellTiter-Glo, 72 hours); type: cell-based, human
In short: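 Luminescent viability signal after 72 h of compound exposure gave GI50 values by four-parameter nonlinear regression. Compounds were added in 0.5% DMSO to cells plated 24 h earlier at 5000/well in DMEM containing 10% FBS.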

[2] = test system: T47D cells; test: Cellular growth inhibition assay for T47D cells (CellTiter-Glo, 72 hours); type: cell-based, human; settings: 72 hours treatment
Experimental: T47D cells were purchased from American Type Cell Culture (ATCC Cat #HTB-133) and then seeded on poly-D-lysine coated, black clear-bottom 384-well plates at 3000/well in 25 μL Dulbecco's Modified Eagle Medium (DMEM) supplemented with 10% w/w Fetal bovine serum (FBS), 0.2 units/mL recombinant human insulin (Gibco Cat #12585014), and 1% w/w Pen-Strep. Pen-Strep is a commercially available mixture of penicillin G and streptomycin, which is used in mammalian cell culture media to prevent bacterial contamination. Dulbecco's Modified Eagle Medium (DMEM) supplemented with 10% w/w fetal bovine serum (FBS), 0.2 units/mL recombinant human insulin, and 1% w/w Pen-Strep is herein referred to as Treatment Medium. Following seeding of cells in the plates, the plates were spun at 300×g for 30 seconds, then equilibrated to room temperature for 30 minutes, and then deposited in a humidified tissue culture incubator maintained at 37° C. with 5% CO2.
At 24 hours after seeding of the cells, dilutions of test compound were prepared in DMSO and dissolved in Treatment Medium, to achieve a final DMSO concentration of 0.5% w/w, thereby providing the Test Compound Solution. A 25 μL aliquot of the Test Compound Solution was added to cells in the well plates. An equal volume of a solution containing DMSO and Treatment Medium was used as a negative control. Following treatment of cells with Test Compound Solution or said equal volume of a solution containing DMSO and Treatment Medium, the plates were spun at 300×g for 30 seconds, and then left in an incubator for 72 hours.
At the end of the treatment duration, cell viability was quantified with CellTiter-Glo 2.0 reagent (Promega Cat #G9243). For this purpose, plates were equilibrated to room temperature for 30 minutes, and then 25 μL of CellTiter-Glo 2.0 reagent was added to cells in the plate wells. Plates were then agitated on a shaker for two minutes at 500 rpm and subsequently incubated at room temperature for 10 minutes. Following incubation, the plates were spun at 3000×g for 30 seconds, then sealed with an optical adhesive cover, and luminescence readings were measured with an EnVision Plate Reader (Perkin Elmer).
Data was normalized using zero luminescence for baseline. A four-parameter non-linear regression curve fit was applied to dose-response data in GraphPad Prism data analysis software to determine the half-maximal growth inhibitory concentration (GI50) for each test compound.

[3] = test system: T-Rex 293 cell line SC3 cells having increased expression of androgen receptor protein due to exposure to doxycycline; test: Cellular growth inhibition assay, T-Rex 293 SC3 cells with doxycycline (CellTiter-Glo, 72 hours); type: cell-based; settings: T-Rex 293 SC3 cells with increased androgen receptor expression due to doxycycline (10 ng/mL)
In short: (§1)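 Doxycycline (10 ng/mL) was either included or omitted to toggle wild-type androgen receptor expression in SC3 cells, a T-Rex 293 clone, grown in stripped-serum, phenol red-free medium. After 72 hours with compound, viable cells were quantified by CellTiter-Glo 2.0.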

[4] = test system: T-Rex 293 cell line SC3 cells lacking increased expression of androgen receptor protein; test: Cellular growth inhibition assay, T-Rex 293 SC3 cells without doxycycline (CellTiter-Glo, 72 hours); type: cell-based; settings: T-Rex 293 cell line SC3 cells not exposed to doxycycline (lacking increased androgen receptor expression)
In short: as §1

SMILES | GI50 ([1]; Homo sapiens, VCaP, 72 h) [nM] | GI50 ([2]; Homo sapiens, T47D, 72 h) [nM] | GI50 ([3]; 72 h) [nM] | GI50 ([4]; 72 h) [nM] | GI50 [1] [nM] | GI50 [2] [nM] | GI50 [3] [nM] | GI50 [4] [nM]
Cc1sc2c(c1C)C(c1ccc(N3CCC[C@H](C(=O)NCc4ccc(C(=O)N[C@H]5CC[C@H](Oc6ccc(C#N)c(Cl)c6)CC5)nn4)C3)cc1)=N[C@H](Cc1ncco1)c1nnc(C)n1-2 [I-295] | > 3000 | 1500 to 3000 | 500 to 1500 | > 3000 | – | – | – | –
Cc1sc2c(c1C)C(c1ccc(C3CC(N4CCN(c5ccc(C(=O)N[C@H]6CC[C@H](Oc7ccc(C#N)c(Cl)c7)CC6)nn5)CC4)C3)cc1)=N[C@@H](Cc1ncco1)c1nnc(C)n1-2 (some centres unmarked) [I-437] | < 500 | < 500 | < 500 | < 500 | – | – | – | –
Cc1sc2c(c1C)C(c1ccc(CCC3CCC4CN(c5ccc(C(=O)N[C@H]6CC[C@H](Oc7ccc(C#N)c(Cl)c7)CC6)nn5)CCN4C3)cc1)=NC(Cc1ncco1)c1nnc(C)n1-2 (some centres unmarked) [I-404] | – | – | – | – | < 500 | < 500 | < 500 | < 500
Cc1sc2c(c1C)C(c1ccc(N3CCC4(CC3)CCN(c3ccc(C(=O)N[C@H]5CC[C@H](Oc6ccc(C#N)c(Cl)c6)CC5)nn3)C4)cc1)=NC1(CC1)c1nnc(C)n1-2 [I-399] | < 500 | 1500 to 3000 | < 500 | 500 to 1500 | – | – | – | –
Cc1sc2c(c1C)C(c1ccc(O[C@@H]3CC[C@@]4(CCCN(c5ccc(C(=O)N[C@H]6CC[C@H](Oc7ccc(C#N)c(Cl)c7)CC6)nn5)C4)C3)cn1)=N[C@@H](Cc1ncco1)c1nnc(C)n1-2 [I-362] | < 500 | < 500 | < 500 | < 500 | – | – | – | –
Cc1sc2c(c1C)C(c1ccc(C#CC3CC4(C3)CN(c3ccc(C(=O)N[C@H]5CC[C@H](Oc6ccc(C#N)c(Cl)c6)CC5)nn3)C4)cc1)=NCc1nnc(C)n1-2 [I-421] | < 500 | 500 to 1500 | < 500 | < 500 | – | – | – | –
Cc1sc2c(c1C)C(c1ccc(C(=O)N3CCC[C@@H](Cc4ccc(C(=O)N[C@H]5CC[C@H](Oc6ccc(C#N)c(Cl)c6)CC5)nn4)C3)cc1)=N[C@@H](Cc1ncco1)c1nnc(C)n1-2 [I-274] | > 3000 | > 3000 | – | – | – | – | – | –
Cc1sc2c(c1C)C(c1ccc(OC3CC4(CCN(c5ccc(C(=O)N[C@H]6CC[C@H](Oc7ccc(C#N)c(Cl)c7)CC6)nn5)CC4)C3)cc1)=NC(Cc1ncco1)c1nnc(C)n1-2 (some centres unmarked) [I-77] | < 500 | 1500 to 3000 | < 500 | 500 to 1500 | – | – | – | –
[2H]C([2H])(c1ccc(C2=N[C@@H](Cc3ncco3)c3nnc(C)n3-c3sc(C)c(C)c32)cc1)N1CCC2(CCCN(c3ccc(C(=O)N[C@H]4CC[C@H](Oc5ccc(C#N)c(Cl)c5)CC4)nn3)C2)C1 (some centres unmarked) [I-389] | < 500 | 500 to 1500 | < 500 | 1500 to 3000 | – | – | – | –
Cc1sc2c(c1C)C(c1ccc(C(=O)N3CCN(C(=O)c4ccc(C(=O)N[C@H]5CC[C@H](Oc6ccc(C#N)c(Cl)c6)CC5)nn4)CC3)cc1)=N[C@H](Cc1ncco1)c1nnc(C)n1-2 [I-239] | 1500 to 3000 | > 3000 | < 500 | > 3000 | – | – | – | –
Cc1sc2c(c1C)C(c1ccc(OC[C@H]3C[C@]4(CCCN(c5ccc(C(=O)N[C@H]6CC[C@H](Oc7ccc(C#N)c(Cl)c7)CC6)nn5)C4)C3)cn1)=N[C@@H](Cc1ncco1)c1nnc(C)n1-2 [I-339] | < 500 | < 500 | < 500 | < 500 | – | – | – | –
Cc1sc2c(c1C)C(c1ccc(N(C)CC(=O)N3CCC(c4ccc(C(=O)N[C@H]5CC[C@H](Oc6ccc(C#N)c(Cl)c6)CC5)nn4)CC3)cc1)=N[C@@H](Cc1ncco1)c1nnc(C)n1-2 [I-312] | > 3000 | > 3000 | > 3000 | > 3000 | – | – | – | –
Cc1sc2c(c1C)C(c1ccc(O[C@H]3CCCN(c4ccc(C(=O)N[C@H]5CC[C@H](Oc6ccc(C#N)c(Cl)c6)CC5)nn4)C3)cc1)=N[C@@H](Cc1ncco1)c1nnc(C)n1-2 [I-217] | 1500 to 3000 | > 3000 | < 500 | < 500 | – | – | – | –
Cc1sc2c(c1C)C(c1ccc(CC3CCC4CN(c5ccc(C(=O)N[C@H]6CC[C@H](Oc7ccc(C#N)c(Cl)c7)CC6)nn5)CCN4C3)cc1)=N[C@@H](Cc1ncco1)c1nnc(C)n1-2 (some centres unmarked) [I-283] | < 500 | < 500 | – | – | – | – | – | –
Cc1sc2c(c1C)C(c1ccc(NCC(=O)N3CCC(c4ccc(C(=O)N[C@H]5CC[C@H](Oc6ccc(C#N)c(Cl)c6)CC5)nn4)CC3)cc1)=N[C@@H](Cc1ncco1)c1nnc(C)n1-2 [I-268] | > 3000 | 500 to 1500 | – | – | – | – | – | –
Cc1sc2c(c1C)C(c1ccc(C(=O)N3CC[C@]4(CCCN(c5ccc(C(=O)N[C@H]6CC[C@H](Oc7ccc(C#N)c(Cl)c7)CC6)nn5)C4)C3)cc1)=N[C@@H](Cc1ncco1)c1nnc(C)n1-2 [I-270] | 500 to 1500 | > 3000 | – | – | – | – | – | –
Cc1sc2c(c1C)C(c1ccc(OC[C@H]3C[C@]4(CCCN(c5ccc(C(=O)N[C@H]6CC[C@H](Oc7ccc(C#N)c(Cl)c7)CC6)nn5)C4)C3)cc1)=N[C@@H](C)c1nnc(C)n1-2 [I-354] | < 500 | – | – | – | – | 500 to 1500 | – | > 3000
Cc1sc2c(c1C)C(c1ccc(C#CC3CC4(C3)CN(c3ccc(C(=O)N[C@H]5CC[C@H](Oc6ccc(C#N)c(Cl)c6)CC5)nn3)C4)cn1)=N[C@@H](Cc1ncco1)c1nnc(C)n1-2 [I-280] | < 500 | > 3000 | – | – | – | – | – | –
CCNC(=O)C[C@@H]1N=C(c2ccc(CCCC3CCN(c4ccc(C(=O)N[C@H]5CC[C@H](Oc6ccc(C#N)c(Cl)c6)CC5)nn4)CC3)cc2)c2c(sc(C)c2C)-n2c(C)nnc21 [I-33] | < 500 | 500 to 1500 | – | 500 to 1500 | – | – | – | –
Cc1sc2c(c1C)C(c1ccc(C(=O)N3CC[C@@]4(CCCN(c5ccc(C(=O)N[C@H]6CC[C@H](Oc7ccc(C#N)c(Cl)c7)CC6)nn5)C4)C3)cc1)=N[C@H](Cc1ncco1)c1nnc(C)n1-2 [I-271] | > 3000 | > 3000 | – | – | – | – | – | –
Cc1sc2c(c1C)C(c1ccc(C(=O)N3CC[C@@]4(CCCN(c5ccc(C(=O)N[C@H]6CC[C@H](Oc7ccc(C#N)c(Cl)c7)CC6)nn5)C4)C3)cc1)=N[C@@H](Cc1ncco1)c1nnc(C)n1-2 [I-269] | > 3000 | 1500 to 3000 | – | – | – | – | – | –
Cc1sc2c(c1C)C(c1ccc(OC[C@H]3C[C@]4(CCCN(c5ccc(C(=O)N[C@H]6CC[C@H](Oc7ccc(C#N)c(Cl)c7)CC6)nn5)C4)C3)cc1)=N[C@@H](C)c1nnc(C)n1-2 [I-309] | – | 500 to 1500 | < 500 | > 3000 | – | – | – | –
Cc1sc2c(c1C)C(c1ccc(C[C@@H]3CC[C@@]4(C3)CN(c3ccc(C(=O)N[C@H]5CC[C@H](Oc6ccc(C#N)c(Cl)c6)CC5)nn3)CCO4)cc1)=N[C@@H](Cc1ncco1)c1nnc(C)n1-2 [I-265] | – | – | – | – | 1500 to 3000 | > 3000 | – | –
Cc1sc2c(c1C)C(c1ccc(CN(C)C(=O)CCc3ccc(C(=O)N[C@H]4CC[C@H](Oc5ccc(C#N)c(Cl)c5)CC4)nn3)cc1)=N[C@@H](Cc1ncco1)c1nnc(C)n1-2 [I-273] | < 500 | 500 to 1500 | – | – | – | – | – | –
Cc1sc2c(c1C)C(c1ccc(C#CC3CC4(C3)CN(c3ccc(C(=O)N[C@H]5CC[C@H](Oc6ccc(C#N)c(Cl)c6)CC5)nn3)C4)nc1)=N[C@@H](Cc1ncco1)c1nnc(C)n1-2 [I-282] | > 3000 | > 3000 | – | – | – | – | – | –
Cc1sc2c(c1C)C(c1ccc(C[C@@H]3CCC4CN(c5ccc(C(=O)N[C@H]6CC[C@H](Oc7ccc(C#N)c(Cl)c7)CC6)nn5)CCN4C3)cc1)=N[C@@H](Cc1ncco1)c1nnc(C)n1-2 (some centres unmarked) [I-259] | < 500 | < 500 | – | – | – | – | – | –
Cc1sc2c(c1C)C(c1ccc(C[C@@H]3CC[C@]4(C3)CN(c3ccc(C(=O)N[C@H]5CC[C@H](Oc6ccc(C#N)c(Cl)c6)CC5)nn3)CCO4)cc1)=N[C@@H](Cc1ncco1)c1nnc(C)n1-2 [I-264] | 1500 to 3000 | > 3000 | – | – | – | – | – | –
Cc1sc2c(c1C)C(c1ccc(C[C@H]3CCC4CN(c5ccc(C(=O)N[C@H]6CC[C@H](Oc7ccc(C#N)c(Cl)c7)CC6)nn5)CCN4C3)cc1)=N[C@@H](Cc1ncco1)c1nnc(C)n1-2 (some centres unmarked) [I-258] | < 500 | < 500 | – | – | – | – | – | –
